Assay: Hair relaxing test: simplified aqueous composition applied to hair
Experimental: A simplified hair relaxing composition was prepared, containing N″,N″-1,3-propanediylbis[N,N,N′,N′-tetramethylguanidine] (RN: 289474-28-8) at a concentration of 0.5M in water, as active relaxing agent. This composition was applied to naturally frizzy African hair for 20 minutes at a temperature of 30° C.
A simplified hair relaxing composition was prepared, containing N″,N″,N″″-(nitrilotri-2,1-ethanediyl)tris[N,N,N′,N′-tetramethylguanidine] (RN: 368866-05-1) at a concentration of 0.25M in water, as active relaxing agent. This composition was applied to naturally frizzy African hair for 25 minutes at a temperature of 30° C.

Structure (SMILES)	hair relaxing (0.5M in water, applied for 20 minutes at 30° C)	hair relaxing (0.25M in water, applied for 25 minutes at 30° C)
CN(C)C(=NCCCN=C(N(C)C)N(C)C)N(C)C [N″,N″-1,3-propanediylbis[N,N,N′,N′-tetramethylguanidine]]	effectively relaxed	
CN(C)C(=NCCN(CCN=C(N(C)C)N(C)C)CCN=C(N(C)C)N(C)C)N(C)C [N″,N″,N″″-(nitrilotri-2,1-ethanediyl)tris[N,N,N′,N′-tetramethylguanidine]]		effectively relaxed

Source: US20060272107A1, “Hair relaxing composition comprising at least one non-hydroxide polyguanidine” (priority 2005, published 2006)
